The values that follow come from patent US20220289691A1, “5-AMINO-SUBSTITUTED PYRAZOLES AND TRIAZOLES AS PEST CONTROL AGENTS” (Bayer Aktiengesellschaft, priority 2019, published 2022).

In the assay the test system is Spodoptera frugiperda. In words: Spodoptera frugiperda spray test. Type of assay: in vivo. To be noted: foliar, 168 h, 100 g/ha, maize leaf discs, after 7 days, read-out: efficacy (caterpillars killed). The method, then: Spodoptera frugiperda—Spray Test Solvent: 78.0 parts by weight of acetone • • 1.5 parts by weight of dimethylformamide Emulsifier: alkylaryl polyglycol ether
To produce a suitable active compound formulation, 1 part by weight of active compound is dissolved using the stated parts by weight of solvent and made up with water containing an emulsifier concentration of 1000 ppm until the desired concentration is attained. To produce further test concentrations, the formulation is diluted with emulsifier-containing water.
Leaf discs of maize (Zea mays) are sprayed with an active compound formulation of the desired concentration and, after drying, populated with caterpillars of the fall armyworm (Spodoptera frugiperda).
After 7 days, the efficacy in % is determined. 100% means that all the caterpillars have been killed; 0% means that no caterpillar has been killed.
Consider `COc1ccc(C(C)C)c(N2C(=O)CSC2=NC(=O)Nc2ccc(-c3nc(NCCC#N)n(-c4ccc(OC(F)(F)C(F)(F)F)cc4)n3)cc2)c1` [Compound I-140], for which the pest or weed control at 100 g/ha was 100%.
As for `COCCNc1nc(-c2ccc(C=NN=C3SCC(=O)N3c3ccccc3C(C)C)cc2)nn1-c1ccc(OC(F)(F)C(F)(F)F)cc1` [Compound I-129], the pest or weed control at 100 g/ha stood at 100%.
As for `CC(C)c1ccccc1NC(=S)NN=Cc1ccc(-c2nc(NCCO)n(-c3ccc(OC(F)(F)C(F)(F)F)cc3)n2)cc1` [Compound I-135], the figure is 100%; as for `CC(C)c1ccccc1N1C(=O)CSC1=NC(=O)Nc1ccc(-c2nc(-n3ccnc3)n(-c3ccc(OC(F)(F)F)cc3)n2)cc1` [Compound I-031], 100%.
As for `COCCNc1nc(-c2ccc(NC(=O)N=C3SCC(=O)N3c3ccccc3C(C)C)cc2)nn1-c1ccc(OC(F)(F)C(F)(F)F)cc1` [Compound I-128], the figure is 100%.
Take `CC(C)c1ccccc1NC(=S)NN=Cc1ccc(-c2nc(NS(=O)(=O)C(F)F)n(-c3ccc(OC(F)(F)F)cc3)n2)cc1` [Compound I-028]: the pest or weed control at 100 g/ha amounted to 83%.
For `CNc1nc(-c2ccc(C=NN=C3SCC(=O)N3c3ccccc3C(C)C)cc2C)nn1-c1ccc(OC(F)(F)F)cc1` [Compound I-121], the pest or weed control at 100 g/ha was found to be 100%.
As for `CC(C)c1ccccc1NC(=S)NN=Cc1ccc(-c2nc(NCCO)n(-c3ccc(OC(F)(F)F)cc3)n2)cc1` [Compound I-078], the pest or weed control at 100 g/ha worked out at 100%.
As for `CCOCCNc1nc(-c2ccc(C=NN=C3SCC(=O)N3c3ccccc3C(C)C)cc2)nn1-c1ccc(OC(F)(F)F)cc1` [Compound I-059], the pest or weed control at 100 g/ha was 100%.
Turning to `CC(C)c1ccccc1N1C(=O)CSC1=NN=Cc1ccc(-c2nc(NCCO)n(-c3ccc(OC(F)(F)C(F)(F)F)cc3)n2)cc1` [Compound I-138], the pest or weed control at 100 g/ha came out at 100%.
`COCCNc1nc(-c2ccc(C=NNC(=S)Nc3cc(OC)ccc3C(C)C)cc2)nn1-c1ccc(OC(F)(F)C(F)(F)F)cc1` [Compound I-133]: the pest or weed control at 100 g/ha is 100%.
For `COc1ccc(C(C)C)c(N2C(=O)CSC2=NN=Cc2ccc(-c3nc(NCCO)n(-c4ccc(OC(F)(F)C(F)(F)F)cc4)n3)cc2)c1` [Compound I-139], the pest or weed control at 100 g/ha amounted to 100%.
In the case of `CNc1nc(-c2ccc(C=NN=C3SCC(=O)N3c3ccccc3C(C)C)c(Cl)c2)nn1-c1ccc(OC(F)(F)F)cc1` [Compound I-115], the pest or weed control at 100 g/ha turned out to be 100%.
As for `COCCNc1nc(-c2ccc(C=NNC(=S)Nc3ccccc3C(C)C)cc2)nn1-c1ccc(OC(F)(F)C(F)(F)F)cc1` [Compound I-132], the figure is 100%; as for `CC(C)c1ccccc1N1C(=O)CSC1=NN=Cc1ccc(-c2nc(NC3CSC3)n(-c3ccc(OC(F)(F)C(F)(F)F)cc3)n2)cc1` [Compound I-101], 83%; as for `CC(C)c1ccccc1N1C(=O)CSC1=NN=Cc1ccc(-c2nc(NCCO)n(-c3ccc(OC(F)(F)F)cc3)n2)cc1` [Compound I-089], 100%.
To `CC(C)c1ccccc1NC(=S)NN=Cc1ccc(-c2nc(NCCC#N)n(-c3ccc(OC(F)(F)C(F)(F)F)cc3)n2)cc1` [Compound I-136] belongs 100%.
As for `COCCNc1nc(-c2ccc(C=NN=C3SCC(=O)N3c3cc(OC)ccc3C(C)C)cc2)nn1-c1ccc(OC(F)(F)C(F)(F)F)cc1` [Compound I-130], the pest or weed control at 100 g/ha worked out at 100%.
To `COCCNc1nc(-c2ccc(NC(=O)N=C3SCC(=O)N3c3cc(OC)ccc3C(C)C)cc2)nn1-c1ccc(OC(F)(F)C(F)(F)F)cc1` [Compound I-131] belongs 100%.
As for `CC(C)c1ccccc1N1C(=O)CSC1=NN=Cc1ccc(-c2nc(NCCC#N)n(-c3ccc(OC(F)(F)C(F)(F)F)cc3)n2)cc1` [Compound I-141], the figure is 100%; as for `COc1ccc(C(C)C)c(NC(=S)NN=Cc2ccc(-c3nc(NCCO)n(-c4ccc(OC(F)(F)C(F)(F)F)cc4)n3)cc2)c1` [Compound I-134], 100%.
